Measurements taken from patent publication US12185723B2, “Herbicidally active 3-phenylisoxazoline-5-carboxamides of s-containing cyclopentenylcarboxylic esters” (Bayer Aktiengesellschaft, priority 2019, dated 2025).

Key:
Format in all cases: in vivo
Amaranthus retroflexus = assay: Post-emergence herbicidal action against AMARE
In short: (§1)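 Weeds sown in sandy loam, greenhouse-grown 2 to 3 weeks and treated at the one-leaf stage. Compounds formulated as WP or EC were sprayed onto green parts as aqueous suspension/emulsion with 0.5% additive at 600 l/ha water. Activity rated visually after about 3 weeks versus untreated controls (100% = plants dead, 0% = like control).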

Viola tricolor = assay: Post-emergence herbicidal action against VIOTR
Method: Post-Emergence Herbicidal Action Against Harmful Plants and Crop Plant Compatibility Seeds of monocotyledonous and dicotyledonous weeds and crop plants are placed in sandy loam in plastic or wood-fibre pots, covered with soil and cultivated in a greenhouse under controlled growth conditions. 2 to 3 weeks after sowing, the test plants are treated at the one-leaf stage. The compounds of the invention, formulated in the form of wettable powders (WP) or as emulsion concentrates (EC), are then sprayed onto the green parts of the plants as aqueous suspension or emulsion with addition of 0.5% additive at a water application rate of 600 l/ha (converted). After the test plants have been kept in the greenhouse under optimum growth conditions for about 3 weeks, the activity of the preparations is rated visually in comparison to untreated controls. For example, 100% activity=the plants have died, 0% activity=like control plants. [table]

Setaria viridis = assay: Post-emergence herbicidal action against SETVI; settings: visual rating about 3 weeks after treatment
In short: as §1

Avena fatua = assay: Post-emergence herbicidal action against AVEFA; settings: visual rating about 3 weeks after treatment
In short: as §1

DIGSA = assay: Post-emergence herbicidal action against DIGSA; settings: visual rating about 3 weeks after treatment
In short: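 Greenhouse-grown plants sprayed at one-leaf stage (2–3 weeks after sowing) with WP or EC formulations as aqueous suspension/emulsion plus 0.5% additive, 600 l/ha water. Activity rated visually about 3 weeks later versus untreated controls, 100% = plants dead, 0% = like controls.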

Lolium rigidum = assay: Post-emergence herbicidal action against LOLRI; settings: visual rating about 3 weeks after treatment
In short: as §1

Hordeum murinum = assay: Post-emergence herbicidal action against HORMU
In short: as §1

Pharbitis purpurea = assay: Post-emergence herbicidal action against PHBPU
In short: as §1

Matricaria inodora = assay: Post-emergence herbicidal action against MATIN
In short: as §1

Stellaria media = assay: Post-emergence herbicidal action against STEME
In short: as §1

Polygonum convolvulus = assay: Post-emergence herbicidal action against POLCO
In short: as §1

Veronica persica = assay: Post-emergence herbicidal action against VERPE
In short: as §1

Alopecurus myosuroides = assay: Post-emergence herbicidal action against ALOMY; settings: visual rating about 3 weeks after treatment
In short: as §1

Echinochloa crus-galli = assay: Post-emergence herbicidal action against ECHCG; settings: visual rating about 3 weeks after treatment
In short: as §1

Abutilon theophrasti = assay: Post-emergence herbicidal action against ABUTH; settings: visual rating about 3 weeks after treatment
In short: as §1

[1] = 80 g a.i./ha, visual rating about 3 weeks after treatment

Row | SMILES | Herbicidal action against [%] AMARE (Amaranthus retroflexus; [1]) [%] | Herbicidal action against [%] VIOTR (Viola tricolor; 20 g a.i./ha) [%] | Herbicidal action against [%] SETVI (Setaria viridis; 20 g a.i./ha) [%] | Herbicidal action against [%] SETVI (Setaria viridis; 80 g a.i./ha) [%] | Herbicidal action against [%] AVEFA (Avena fatua; 20 g a.i./ha) [%] | Herbicidal action against [%] AVEFA (Avena fatua; 80 g a.i./ha) [%] | Herbicidal action against [%] DIGSA (DIGSA; 20 g a.i./ha) [%] | Herbicidal action against [%] DIGSA (DIGSA; 80 g a.i./ha) [%] | Herbicidal action against [%] LOLRI (Lolium rigidum; 20 g a.i./ha) [%] | Herbicidal action against [%] LOLRI (Lolium rigidum; 80 g a.i./ha) [%] | Herbicidal action against [%] HORMU (Hordeum murinum; 20 g a.i./ha) [%] | Herbicidal action against [%] HORMU (Hordeum murinum; 80 g a.i./ha) [%] | Herbicidal action against [%] MATIN (Matricaria inodora; [1]) [%] | Herbicidal action against [%] STEME (Stellaria media; 20 g a.i./ha) [%] | Herbicidal action against [%] STEME (Stellaria media; 80 g a.i./ha) [%] | Herbicidal action against [%] VERPE (Veronica persica; 20 g a.i./ha) [%] | Herbicidal action against [%] VERPE (Veronica persica; 80 g a.i./ha) [%] | Herbicidal action against [%] ALOMY (Alopecurus myosuroides; 20 g a.i./ha) [%] | Herbicidal action against [%] ALOMY (Alopecurus myosuroides; 80 g a.i./ha) [%] | Herbicidal action against [%] ECHCG (Echinochloa crus-galli; 80 g a.i./ha) [%] | also measured
1 | CSCCOC(=O)C1=CC(NC(=O)C2(C)CC(c3cc(F)cc(F)c3)=NO2)CC1 (centres unmarked) [Example I-51] | 80 | 90 | 80 | 80 | 100 | 100 | 80 | 80 | 90 | 100 | 90 | 90 | 80 | 90 | 90 | 90 | 90 | 90 | 90 | 90 | Herbicidal action against [%] PHBPU (Pharbitis purpurea; 80 g a.i./ha): 80%; Herbicidal action against [%] POLCO (Polygonum convolvulus; 80 g a.i./ha): 80%; Herbicidal action against [%] ECHCG (Echinochloa crus-galli; 20 g a.i./ha): 80%
2 | CSCCOC(=O)C1C=CC(NC(=O)C2(C3CC3)CC(c3cc(F)cc(F)c3)=NO2)C1 (centres unmarked) [Example I-28] | 80 | 90 | 90 | 90 | 90 | 90 | 90 | 90 | 90 | 90 | 90 | 90 | 90 | 90 | 90 | 90 | 90 | 90 | 90 | 90 | Herbicidal action against [%] AMARE (Amaranthus retroflexus; 20 g a.i./ha): 80%; Herbicidal action against [%] VIOTR (Viola tricolor; 80 g a.i./ha): 80%; Herbicidal action against [%] MATIN (Matricaria inodora; 20 g a.i./ha): 80%; Herbicidal action against [%] POLCO (Polygonum convolvulus; 20 g a.i./ha): 80%; Herbicidal action against [%] POLCO (Polygonum convolvulus; 80 g a.i./ha): 90%; Herbicidal action against [%] ABUTH (Abutilon theophrasti; 20 g a.i./ha): 90%; Herbicidal action against [%] ABUTH (Abutilon theophrasti; 80 g a.i./ha): 90%; Herbicidal action against [%] ECHCG (Echinochloa crus-galli; 20 g a.i./ha): 90%
3 | CSCCOC(=O)[C@@H]1C=C[C@H](NC(=O)C2(C(F)(F)F)CC(c3cc(F)cc(Cl)c3)=NO2)C1 (stereo partly drawn) [Example I-33, 2-methylsulfanylethyl (1S,4R)-4-[[3-(3-chloro-5-fluorophenyl)-5-(trifluoromethyl)-4H-isoxazole-5-carbonyl]amino]cyclopent-2-ene-1-carboxylate] | – | 90 | 80 | 80 | 80 | 100 | 80 | 80 | 90 | 90 | 80 | 90 | 80 | 90 | 90 | 80 | 80 | 80 | 90 | 80 | Herbicidal action against [%] MATIN (Matricaria inodora; 20 g a.i./ha): 80%; Herbicidal action against [%] ABUTH (Abutilon theophrasti; 20 g a.i./ha): 80%; Herbicidal action against [%] ABUTH (Abutilon theophrasti; 80 g a.i./ha): 80%
4 | CSCCOC(=O)C1C=CC(NC(=O)C2(C)CC(c3cc(F)cc(Cl)c3)=NO2)C1 (centres unmarked) [Example I-32] | 80 | 80 | 80 | 80 | 90 | 90 | 80 | 80 | 90 | 90 | 80 | 80 | 80 | 80 | 90 | 80 | 90 | 90 | 100 | 80 | Herbicidal action against [%] PHBPU (Pharbitis purpurea; 80 g a.i./ha): 80%; Herbicidal action against [%] MATIN (Matricaria inodora; 20 g a.i./ha): 80%; Herbicidal action against [%] ECHCG (Echinochloa crus-galli; 20 g a.i./ha): 80%
5 | CSCCOC(=O)C1C=CC(NC(=O)C2(C)CC(c3cc(Cl)cc(C#N)c3)=NO2)C1 (mixture of isomers) [Example I-49] | 100 | 90 | – | 80 | 90 | 90 | 80 | 90 | 90 | 90 | 80 | 80 | 80 | 90 | 90 | 80 | 90 | 90 | 100 | 80 | Herbicidal action against [%] AMARE (Amaranthus retroflexus; 20 g a.i./ha): 90%; Herbicidal action against [%] VIOTR (Viola tricolor; 80 g a.i./ha): 80%; Herbicidal action against [%] PHBPU (Pharbitis purpurea; 20 g a.i./ha): 80%; Herbicidal action against [%] ABUTH (Abutilon theophrasti; 80 g a.i./ha): 80%
